How the values were obtained:
LM2 cells [1] = test: Drug uptake and retention analysis of radiolabeled paclitaxel and doxorubicin; settings: for effect of MTDH on drug uptake or retention: cancer cells with modified MTDH expression (LM2 knockdown, SCP28 overexpression); for kinetics of uptake and retention: parent LM2 cells, pilot study, 50 nM [H3]-paclitaxel or 100 nM [C14]-doxorubicin
LM2 cells [2] = test: Chemoresistance clonogenic assay; type: cell-based, human; settings: for chemoresistance on ALDH3A1 overexpression in MTDH knockdown cells: constitutive ALDH3A1 overexpression in MTDH knockdown LM2 cells; for sensitivity of LM2 cells on ALDH3A1 knockdown: inducible ALDH3A1 shRNA induced by doxycycline
Description: The infected cells were selected with 0.5 μg/ml puromycin or/and 0.4 mg/ml hygromycin. Double knockdown of MET and ALDH3A1 was achieved by simultaneous infection of MET and ALDH3A1 targeting viruses with different drug selection markers. MTDH, LAPTM4b, PTDSS1, SDC2, TSPYL5, and UQCRB overexpression was achieved using the retroviral expression vector pBabe-hygro. Viruses were generated and used to infect target cells as above and the infected cells were selected with 0.4 mg/ml hygromycin. For combinational overexpression of genes at 8q22, the viruses generated from the expression vector pBabe-puro containing each of the four genes were concentrated by ultracentrifugation and pooled for infection. Northern blots, qRT-PCR, and/or Western blots were performed to validate the knockdown or overexpression of target genes.
To generate an inducible knockdown of ALDH3A1, a retroviral vector expressing the Tet repressor (TetR) was constructed by cloning the TetR coding sequence from the pcDNA6/TR plasmid (Invitrogen) to pQCXIH (Clontech). LM2 cell line with stable expression of TetR was generated by transduction with retroviruses produced from pQCXIH-TetR. The cell line was then infected with retroviruses generated from the pRSMX vector^77 containing the ALDH3A1-targeting shRNA sequence. The expression of a shRNA against ALDH3A1 is under the control of the histone H1 promoter and two adjacent tetracycline operators (TetOs). The bacterial Tet repressor (TetR) is constitutively expressed from the integrated pQCXIH-TetR in this cell line and suppresses the expression of shRNA by binding to TetOs. In the presence of […] doxycycline in the media, TetR is released from the TetOs and allow the transcription of ALDH3A1 shRNA and thus the repression of ALDH3A1 expression. The pBabe-hygro vector was used to overexpress ALDH3A1.
Cancer cells with genetic modification of MTDH and/or ALDH3A1 and the vector control were seeded into a 48-well plate (10^4 cells/well). After 24 h, the cells were treated with apoptosis-inducing chemicals for the indicated time (20, 50 or 100 nM paclitaxel, EMD Biosciences, 24 h; 50, 100 or 200 μM doxorubicin, EMD Biosciences, 24 h; 40 μM cisplatin, EMD Biosciences, 2 h; 200 or 500 μM H2O2, Fisher Scientific, 2 h) or 10 mJ/cm^2 UV irradiation. After culturing in drug-free DMEM medium for another 48 h, the surviving cells were quantified by clonogenic assay with the standard procedure for long-term recovery. Briefly, an aliquot of the harvested cell population was seeded onto a 10 cm dish. Crystal violet staining was used to count the colonies after 10-day culture in DMEM medium. The colony numbers from untreated cells of the same line were used to normalize the experimental data. In the HMVEC-L co-culture assays, HMVEC-L cells were grown to confluence in the 48-well plates with supplemented EGM-2 medium (Lonza) before seeding of cancer cells. Because HMVEC-L cells could not form colonies in the DMEM medium (data not shown), the rest of the assay was performed following the standard procedure.

LM2 cells [3] = test: In vivo chemoresistance assay, subcutaneous LM2 xenograft tumors; design: species or system nude mice
Description: MTDH-knockdown or control LM2 cells (1×10^6 cells/0.1 ml in a 50:50 solution of PBS and Matrigel) were injected subcutaneously into each flank of nude mice. The mice were treated with chemotherapeutic drugs (20 mg/kg paclitaxel or 5 mg/kg doxorubicin) or the corresponding drug vehicles (Cremophor for paclitaxel and saline for doxorubicin) twice a week by intravenous delivery a week after the tumor xenografting. Six mice (12 tumors) were used for each group. Tumor growth was monitored twice a week by size measurement. Both maximum (L) and minimum (W) diameters of the tumor were measured using a slide caliper, and the tumor volume was calculated as […]LW^2/6. Tumor growth was normalized to that before drug treatment.

For `COc1cccc2c1C(=O)c1c(O)c3c(c(O)c1C2=O)C[C@@](O)(C(=O)CO)C[C@@H]3O[C@H]1C[C@H](N)[C@H](O)[C@H](C)O1` [doxorubicin], the “effect of MTDH on drug uptake or retention” value (LM2 cells [1]) was “does not decrease drug uptake or retention”, the “kinetics of uptake and retention” value (LM2 cells [1]) was “biphasic kinetics” and the “chemoresistance on MET knockdown” value (LM2 cells [2]; MET knockdown in LM2 cells, weaker than MTDH knockdown) was “significant reduction of chemoresistance”. For the same compound, the “chemoresistance on ALDH3A1 overexpression in MTDH knockdown cells” value (LM2 cells [2]) was “partially restore” and the “sensitivity of LM2 cells on ALDH3A1 knockdown” value (LM2 cells [2]) was “more sensitive”.
With `CC(=O)O[C@H]1C(=O)[C@@]2(C)[C@H]([C@H](OC(=O)c3ccccc3)[C@]3(O)C[C@H](OC(=O)[C@H](O)[C@@H](NC(=O)c4ccccc4)c4ccccc4)C(C)=C1C3(C)C)[C@]1(OC(C)=O)CO[C@@H]1C[C@@H]2O` [paclitaxel] the “tumor size relative to pre-treatment size” value (LM2 cells [3]; MTDH knockdown LM2 cells, 20 mg/kg paclitaxel intravenous twice a week, 18 days after initiation of treatment) was “about 30%”, the “tumor response in MTDH knockdown tumors” value (LM2 cells [3]; MTDH knockdown LM2 cells, paclitaxel 20 mg/kg or doxorubicin 5 mg/kg twice a week) was “tumor regression” and the “tumor volume relative to volume before treatment” value (LM2 cells [3]; control LM2 cells, 20 mg/kg paclitaxel intravenous twice a week, 18 days after treatment) was 140%. For the same compound, the “effect on tumor growth” value (LM2 cells [3]; control LM2 cells, versus drug vehicle) was “significantly hampered tumor growth”, the “effect of MTDH on drug uptake or retention” value (LM2 cells [1]) was “does not decrease drug uptake or retention” and the “kinetics of uptake and retention” value (LM2 cells [1]) was “biphasic kinetics”. For the same compound, the “chemoresistance on ALDH3A1 overexpression in MTDH knockdown cells” value (LM2 cells [2]) was “partially restore” and the “sensitivity of LM2 cells on ALDH3A1 knockdown” value (LM2 cells [2]) was “more sensitive”.

Source: patent publication US10745701B2, “Methods of identifying and treating poor-prognosis cancers” (The Trustees of Princeton University, priority 2007, dated 2020)
